Data published in ChEMBL document CHEMBL3044736, “Synthesis, characterization, solvatochromic properties, and antimicrobial evaluation of 5-acetyl-2-thioxo-dihydro-pyrimidine-4,6-dione-based chalcones” (2013).
≈ marks a conversion by molar mass, not a printed value.

Assays:
Format in all cases: functional
Trichophyton rubrum [1] = experiment: Antimicrobial activity against Trichophyton rubrum MTCC 296 by agar cup diffusion method
Trichophyton rubrum [2] = experiment: Antimicrobial activity against Trichophyton rubrum MTCC 296 assessed as diameter of growth inhibition zone at 100 ug/ml after 48-96 hr by agar cup diffusion method; conditions: read-out: DIZ
Streptococcus pyogenes [3] = experiment: Antimicrobial activity against Streptococcus pyogenes MTCC 442 assessed as diameter of growth inhibition zone at 250 ug/ml after 18-24 hr by agar cup diffusion method; conditions: read-out: DIZ
Klebsiella pneumoniae [4] = experiment: Antimicrobial activity against Klebsiella pneumoniae MTCC 109 assessed as diameter of growth inhibition zone at 250 ug/ml after 18-24 hr by agar cup diffusion method; conditions: read-out: DIZ
Escherichia coli [5] = experiment: Antimicrobial activity against Escherichia coli MTCC 443 assessed as diameter of growth inhibition zone at 25 ug/ml after 18-24 hr by agar cup diffusion method; conditions: read-out: DIZ
Trichophyton rubrum [6] = experiment: Antimicrobial activity against Trichophyton rubrum MTCC 296 assessed as diameter of growth inhibition zone at 250 ug/ml after 48-96 hr by agar cup diffusion method; conditions: read-out: DIZ
Candida albicans [7] = experiment: Antimicrobial activity against Candida albicans MTCC 227 assessed as diameter of growth inhibition zone at 100 ug/ml after 48-96 hr by agar cup diffusion method; conditions: read-out: DIZ
Penicillium [8] = experiment: Antimicrobial activity against Penicillium wild strain assessed as diameter of growth inhibition zone at 50 ug/ml after 48-96 hr by agar cup diffusion method; conditions: read-out: DIZ
Penicillium [9] = experiment: Antimicrobial activity against Penicillium wild strain assessed as diameter of growth inhibition zone at 100 ug/ml after 48-96 hr by agar cup diffusion method; conditions: read-out: DIZ
Pseudomonas aeruginosa [10] = experiment: Antimicrobial activity against Pseudomonas aeruginosa MTCC 1688 assessed as diameter of growth inhibition zone at 250 ug/ml after 18-24 hr by agar cup diffusion method; conditions: read-out: DIZ
Candida albicans [11] = experiment: Antimicrobial activity against Candida albicans MTCC 227 assessed as diameter of growth inhibition zone at 50 ug/ml after 48-96 hr by agar cup diffusion method; conditions: read-out: DIZ
Aspergillus clavatus [12] = experiment: Antimicrobial activity against Aspergillus clavatus MTCC 1323 by agar cup diffusion method
Escherichia coli [13] = experiment: Antimicrobial activity against Escherichia coli MTCC 443 by agar cup diffusion method
Aspergillus clavatus [14] = experiment: Antimicrobial activity against Aspergillus clavatus MTCC 1323 assessed as diameter of growth inhibition zone at 25 ug/ml after 48-96 hr by agar cup diffusion method; conditions: read-out: DIZ
Streptococcus pyogenes [15] = experiment: Antimicrobial activity against Streptococcus pyogenes MTCC 442 assessed as diameter of growth inhibition zone at 25 ug/ml after 18-24 hr by agar cup diffusion method; conditions: read-out: DIZ
Escherichia coli [16] = experiment: Antimicrobial activity against Escherichia coli MTCC 443 assessed as diameter of growth inhibition zone at 50 ug/ml after 18-24 hr by agar cup diffusion method; conditions: read-out: DIZ
Streptococcus pyogenes [17] = experiment: Antimicrobial activity against Streptococcus pyogenes MTCC 442 assessed as diameter of growth inhibition zone at 100 ug/ml after 18-24 hr by agar cup diffusion method; conditions: read-out: DIZ
Klebsiella pneumoniae [18] = experiment: Antimicrobial activity against Klebsiella pneumoniae MTCC 109 assessed as diameter of growth inhibition zone at 100 ug/ml after 18-24 hr by agar cup diffusion method; conditions: read-out: DIZ
Candida albicans [19] = experiment: Antimicrobial activity against Candida albicans MTCC 227 by agar cup diffusion method
Pseudomonas aeruginosa [20] = experiment: Antimicrobial activity against Pseudomonas aeruginosa MTCC 1688 assessed as diameter of growth inhibition zone at 50 ug/ml after 18-24 hr by agar cup diffusion method; conditions: read-out: DIZ
Streptococcus pyogenes [21] = experiment: Antimicrobial activity against Streptococcus pyogenes MTCC 442 assessed as diameter of growth inhibition zone at 50 ug/ml after 18-24 hr by agar cup diffusion method; conditions: read-out: DIZ
Klebsiella pneumoniae [22] = experiment: Antimicrobial activity against Klebsiella pneumoniae MTCC 109 by agar cup diffusion method
Penicillium [23] = experiment: Antimicrobial activity against Penicillium wild strain assessed as diameter of growth inhibition zone at 250 ug/ml after 48-96 hr by agar cup diffusion method; conditions: read-out: DIZ
Staphylococcus aureus [24] = experiment: Antimicrobial activity against Staphylococcus aureus MTCC 96 by agar cup diffusion method
Staphylococcus aureus [25] = experiment: Antimicrobial activity against Staphylococcus aureus MTCC 96 assessed as diameter of growth inhibition zone at 25 ug/ml after 18-24 hr by agar cup diffusion method; conditions: read-out: DIZ
Staphylococcus aureus [26] = experiment: Antimicrobial activity against Staphylococcus aureus MTCC 96 assessed as diameter of growth inhibition zone at 100 ug/ml after 18-24 hr by agar cup diffusion method; conditions: read-out: DIZ
Staphylococcus aureus [27] = experiment: Antimicrobial activity against Staphylococcus aureus MTCC 96 assessed as diameter of growth inhibition zone at 250 ug/ml after 18-24 hr by agar cup diffusion method; conditions: read-out: DIZ
Pseudomonas aeruginosa [28] = experiment: Antimicrobial activity against Pseudomonas aeruginosa MTCC 1688 by agar cup diffusion method
Aspergillus clavatus [29] = experiment: Antimicrobial activity against Aspergillus clavatus MTCC 1323 assessed as diameter of growth inhibition zone at 50 ug/ml after 48-96 hr by agar cup diffusion method; conditions: read-out: DIZ
Penicillium [30] = experiment: Antimicrobial activity against Penicillium wild strain assessed as diameter of growth inhibition zone at 25 ug/ml after 48-96 hr by agar cup diffusion method; conditions: read-out: DIZ
Klebsiella pneumoniae [31] = experiment: Antimicrobial activity against Klebsiella pneumoniae MTCC 109 assessed as diameter of growth inhibition zone at 50 ug/ml after 18-24 hr by agar cup diffusion method; conditions: read-out: DIZ
Aspergillus clavatus [32] = experiment: Antimicrobial activity against Aspergillus clavatus MTCC 1323 assessed as diameter of growth inhibition zone at 100 ug/ml after 48-96 hr by agar cup diffusion method; conditions: read-out: DIZ
Escherichia coli [33] = experiment: Antimicrobial activity against Escherichia coli MTCC 443 assessed as diameter of growth inhibition zone at 250 ug/ml after 18-24 hr by agar cup diffusion method; conditions: read-out: DIZ
Penicillium [34] = experiment: Antimicrobial activity against Penicillium wild strain by agar cup diffusion method
Pseudomonas aeruginosa [35] = experiment: Antimicrobial activity against Pseudomonas aeruginosa MTCC 1688 assessed as diameter of growth inhibition zone at 100 ug/ml after 18-24 hr by agar cup diffusion method; conditions: read-out: DIZ
Pseudomonas aeruginosa [36] = experiment: Antimicrobial activity against Pseudomonas aeruginosa MTCC 1688 assessed as diameter of growth inhibition zone at 25 ug/ml after 18-24 hr by agar cup diffusion method; conditions: read-out: DIZ
Candida albicans [37] = experiment: Antimicrobial activity against Candida albicans MTCC 227 assessed as diameter of growth inhibition zone at 25 ug/ml after 48-96 hr by agar cup diffusion method; conditions: read-out: DIZ
Staphylococcus aureus [38] = experiment: Antimicrobial activity against Staphylococcus aureus MTCC 96 assessed as diameter of growth inhibition zone at 50 ug/ml after 18-24 hr by agar cup diffusion method; conditions: read-out: DIZ
Escherichia coli [39] = experiment: Antimicrobial activity against Escherichia coli MTCC 443 assessed as diameter of growth inhibition zone at 100 ug/ml after 18-24 hr by agar cup diffusion method; conditions: read-out: DIZ
Trichophyton rubrum [40] = experiment: Antimicrobial activity against Trichophyton rubrum MTCC 296 assessed as diameter of growth inhibition zone at 25 ug/ml after 48-96 hr by agar cup diffusion method; conditions: read-out: DIZ
Streptococcus pyogenes [41] = experiment: Antimicrobial activity against Streptococcus pyogenes MTCC 442 by agar cup diffusion method
Klebsiella pneumoniae [42] = experiment: Antimicrobial activity against Klebsiella pneumoniae MTCC 109 assessed as diameter of growth inhibition zone at 25 ug/ml after 18-24 hr by agar cup diffusion method; conditions: read-out: DIZ
Aspergillus clavatus [43] = experiment: Antimicrobial activity against Aspergillus clavatus MTCC 1323 assessed as diameter of growth inhibition zone at 250 ug/ml after 48-96 hr by agar cup diffusion method; conditions: read-out: DIZ
Candida albicans [44] = experiment: Antimicrobial activity against Candida albicans MTCC 227 assessed as diameter of growth inhibition zone at 250 ug/ml after 48-96 hr by agar cup diffusion method; conditions: read-out: DIZ
Trichophyton rubrum [45] = experiment: Antimicrobial activity against Trichophyton rubrum MTCC 296 assessed as diameter of growth inhibition zone at 50 ug/ml after 48-96 hr by agar cup diffusion method; conditions: read-out: DIZ

O=C(/C=C/c1ccccc1O)C1C(=O)NC(=S)NC1=O
MFC (Trichophyton rubrum [1]): > 1000 µg/mL
MIC (Trichophyton rubrum [1]): > 1000 µg/mL
zone of inhibition at 100 µg/mL (Trichophyton rubrum [2]): 21 mm
zone of inhibition at 250 µg/mL (Streptococcus pyogenes [3]): 17 mm
zone of inhibition at 250 µg/mL (Klebsiella pneumoniae [4]): 17 mm
zone of inhibition at 25 µg/mL (Escherichia coli [5]): 13 mm
zone of inhibition at 250 µg/mL (Trichophyton rubrum [6]): 22 mm
zone of inhibition at 100 µg/mL (Candida albicans [7]): 22 mm
zone of inhibition at 50 µg/mL (Penicillium [8]): 19 mm
zone of inhibition at 100 µg/mL (Penicillium [9]): 22 mm
zone of inhibition at 250 µg/mL (Pseudomonas aeruginosa [10]): 19 mm
zone of inhibition at 50 µg/mL (Candida albicans [11]): 19 mm
MFC (Aspergillus clavatus [12]): > 1000 µg/mL
MIC (Aspergillus clavatus [12]): > 1000 µg/mL
MBC (Escherichia coli [13]): 200 µg/mL (≈ 689 µM)
MIC (Escherichia coli [13]): 125 µg/mL (≈ 431 µM)
zone of inhibition at 25 µg/mL (Aspergillus clavatus [14]): 18 mm
zone of inhibition at 25 µg/mL (Streptococcus pyogenes [15]): 13 mm
zone of inhibition at 50 µg/mL (Escherichia coli [16]): 15 mm
zone of inhibition at 100 µg/mL (Streptococcus pyogenes [17]): 16 mm
zone of inhibition at 100 µg/mL (Klebsiella pneumoniae [18]): 15 mm
MFC (Candida albicans [19]): > 1000 µg/mL
MIC (Candida albicans [19]): 1000 µg/mL (≈ 3440 µM)
zone of inhibition at 50 µg/mL (Pseudomonas aeruginosa [20]): 13 mm
zone of inhibition at 50 µg/mL (Streptococcus pyogenes [21]): 15 mm
MBC (Klebsiella pneumoniae [22]): 250 µg/mL (≈ 861 µM)
MIC (Klebsiella pneumoniae [22]): 200 µg/mL (≈ 689 µM)
zone of inhibition at 250 µg/mL (Penicillium [23]): 23 mm
MBC (Staphylococcus aureus [24]): 500 µg/mL (≈ 1720 µM)
MIC (Staphylococcus aureus [24]): 500 µg/mL (≈ 1720 µM)
zone of inhibition at 25 µg/mL (Staphylococcus aureus [25]): 11 mm
zone of inhibition at 100 µg/mL (Staphylococcus aureus [26]): 17 mm
zone of inhibition at 250 µg/mL (Staphylococcus aureus [27]): 19 mm
MBC (Pseudomonas aeruginosa [28]): 250 µg/mL (≈ 861 µM)
MIC (Pseudomonas aeruginosa [28]): 250 µg/mL (≈ 861 µM)
zone of inhibition at 50 µg/mL (Aspergillus clavatus [29]): 19 mm
zone of inhibition at 25 µg/mL (Penicillium [30]): 18 mm
zone of inhibition at 50 µg/mL (Klebsiella pneumoniae [31]): 13 mm
zone of inhibition at 100 µg/mL (Aspergillus clavatus [32]): 20 mm
zone of inhibition at 250 µg/mL (Escherichia coli [33]): 17 mm
MFC (Penicillium [34]): > 1000 µg/mL
MIC (Penicillium [34]): > 1000 µg/mL
zone of inhibition at 100 µg/mL (Pseudomonas aeruginosa [35]): 17 mm
zone of inhibition at 25 µg/mL (Pseudomonas aeruginosa [36]): 11 mm
zone of inhibition at 25 µg/mL (Candida albicans [37]): 17 mm
zone of inhibition at 50 µg/mL (Staphylococcus aureus [38]): 13 mm
zone of inhibition at 100 µg/mL (Escherichia coli [39]): 16 mm
zone of inhibition at 25 µg/mL (Trichophyton rubrum [40]): 18 mm
MBC (Streptococcus pyogenes [41]): 200 µg/mL (≈ 689 µM)
MIC (Streptococcus pyogenes [41]): 125 µg/mL (≈ 431 µM)
zone of inhibition at 25 µg/mL (Klebsiella pneumoniae [42]): 12 mm
zone of inhibition at 250 µg/mL (Aspergillus clavatus [43]): 22 mm
zone of inhibition at 250 µg/mL (Candida albicans [44]): 24 mm
zone of inhibition at 50 µg/mL (Trichophyton rubrum [45]): 21 mm
